{"source": "patent US20080161273A1", "about": "“Method of Using Adapalene in Acne Maintenance Therapy” (GALDERMA RESEARCH & DEVELOPMENT, priority 2004, published 2008)", "key": {"[1]": {"test_system": "acne vulgaris", "experiment": "16-week maintenance therapy study after adapalene-doxycycline combination therapy: efficacy (maintenance rate, lesion counts, global severity)", "format": "in vivo, human", "from_the_text": "The efficacy and safety of the adapalene gel 0.1% (Galderma Laboratories, LP, Ft. Worth, Tex.) as a maintenance therapy were compared to gel vehicle in a randomized, multicenter, vehicle-controlled, investigator-blind, parallel group study conducted at 34 centers in the United States between Nov. 13, 2003 and May 25, 2004. This study was designed to set a high threshold for achieving success. […] These subjects were re-randomized consecutively in a 1:1 ratio to receive either adapalene gel 0.1% or adapalene gel vehicle once-daily in the evening for an additional 16 weeks. Subjects were stratified by the treatment assignment received in the previous study using an interactive voice responsive system. The randomization schedule remained blinded from those involved in the clinical conduct of the study. The integrity of the blinding was ensured by packaging the topical medication in identical tubes and requiring a third party other than the investigator/evaluator to dispense the medication. Exclusion criteria prohibited enrollment of subjects with acne requiring isotretinoin therapy or other dermatologic conditions requiring interfering treatment. Women were excluded if they were pregnant, nursing, or planning a pregnancy as were men with facial hair that would interfere with the assessments. Subjects were provided Cetaphil® daily facial moisturizer SPF 15 (Galderma Laboratories, LP., Ft Worth, Tex.) to use as needed for the symptomatic relief of skin dryness or irritation. Evaluations for this study occurred at baseline and at weeks 4, 8, 12, and 16. The final visit from the previous 12-week combination study served as the baseline visit for this 16-week maintenance study. The primary efficacy variable was the failure rate at week 16, defined as the percentage of subjects unable to maintain 50% of total lesion count improvement from the previous 12-week combination therapy study (e.g., a subject entering the maintenance phase after having lost 40 lesions in the combination study was considered as a failure if the lesion count at the end of the maintenance study was increased by more than 20 lesions). Data from this assessment is presented graphically herein as a maintenance rate, which is simply 100% minus the failure rate. Secondary efficacy variables included lesion counts (total, inflammatory and non inflammatory), failure rates for inflammatory and non-inflammatory lesions, as well as global severity and global improvement of the disease. At the last visit, subject satisfaction was assessed via a 5-question survey. All data analyses were carried out according to a pre-established analysis plan. A sample size of 113 subjects per group was deemed necessary to detect a statistically significant difference in failure rate between treatment groups based on the use of a 2-tailed test with […] and a power of 90%; an assumption of a 15% efficacy difference between the 2 treatment groups; and a dropout rate of 10%. Three study populations were analyzed. The safety population was defined as all patients randomized and treated at least once. The intent-to-treat (ITT) population included all randomized subjects who were dispensed study medication. The per-protocol (PP) population included all randomized subjects without any major protocol deviations. […] Analyses for efficacy were performed on week 16 data for the ITT population and the PP population. Last observation carried forward (LOCF) methodology was used to account for missing data for the ITT population analysis (lesion counts). In addition, all subjects with missing data at week 16 were considered failures for the failure rate analysis (worst case). Age was tested at baseline with the analysis of variance (ANOVA) model with treatment, center, and their interaction as factors. All other variables were analyzed by using the Cochran-Mantel-Haenzsel (CMH) test controlling for “analysis center” and previous treatment for both the ITT and PP populations. […]"}, "[2]": {"experiment": "16-week maintenance therapy study: safety, local facial tolerability, adverse events, discontinuation", "format": "in vivo, human", "from_the_text": "The efficacy and safety of the adapalene gel 0.1% (Galderma Laboratories, LP, Ft. Worth, Tex.) as a maintenance therapy were compared to gel vehicle in a randomized, multicenter, vehicle-controlled, investigator-blind, parallel group study conducted at 34 centers in the United States between Nov. 13, 2003 and May 25, 2004. This study was designed to set a high threshold for achieving success. […] These subjects were re-randomized consecutively in a 1:1 ratio to receive either adapalene gel 0.1% or adapalene gel vehicle once-daily in the evening for an additional 16 weeks. Subjects were stratified by the treatment assignment received in the previous study using an interactive voice responsive system. The randomization schedule remained blinded from those involved in the clinical conduct of the study. The integrity of the blinding was ensured by packaging the topical medication in identical tubes and requiring a third party other than the investigator/evaluator to dispense the medication.\nSafety and tolerability were assessed through evaluations of local facial tolerability and adverse events. At each visit, the investigator rated erythema, scaling, dryness, and stinging/burning on a scale ranging from 0 (none) to 3 (severe). Mean scores at each postbaseline visit and worst score (worst observation recorded for a subject during the post-baseline period) were recorded. Adverse events were also evaluated at each visit.\nThree study populations were analyzed. The safety population was defined as all patients randomized and treated at least once. The intent-to-treat (ITT) population included all randomized subjects who were dispensed study medication. The per-protocol (PP) population included all randomized subjects without any major protocol deviations."}, "[3]": {"experiment": "5-question subject satisfaction survey at last visit of the maintenance study", "format": "in vivo, human", "details": "P=0.94 vs vehicle", "from_the_text": "The primary efficacy variable was the failure rate at week 16, defined as the percentage of subjects unable to maintain 50% of total lesion count improvement from the previous 12-week combination therapy study (e.g., a subject entering the maintenance phase after having lost 40 lesions in the combination study was considered as a failure if the lesion count at the end of the maintenance study was increased by more than 20 lesions). Data from this assessment is presented graphically herein as a maintenance rate, which is simply 100% minus the failure rate. Secondary efficacy variables included lesion counts (total, inflammatory and non inflammatory), failure rates for inflammatory and non-inflammatory lesions, as well as global severity and global improvement of the disease. At the last visit, subject satisfaction was assessed via a 5-question survey."}, "[4]": {"details": "applied as monotherapy, versus tazarotene and tretinoin formulations, cited from earlier work"}}, "note": "Read-outs that look alike come from different tables or passages of the source.", "data": [{"smiles": "COc1ccc(-c2ccc3cc(C(=O)O)ccc3c2)cc1C12CC3CC(CC(C3)C1)C2", "note": "[adapalene, 6-[3-(1-adamantyl)-4-methoxyphenyl]-2-naphtoic acid]", "values": [{"measurement": "lesion counts during the course of the study versus baseline", "setting": "[1]; 16 weeks, vehicle group gradually increased", "value": "remained stable or decreased"}, {"measurement": "subjects \"clear\" or \"almost clear\" in global severity assessment", "setting": "[1]; P=0.005 for distribution of severity scores vs vehicle", "value": 27, "unit": "%"}, {"measurement": "global assessment of improvement versus vehicle", "setting": "[1]; P=0.01", "value": "significant advantages"}, {"measurement": "total lesion counts relative to vehicle", "setting": "[1]; end point week 16, ITT, LOCF, P=0.005", "value": "significantly lower"}, {"measurement": "inflammatory lesion counts relative to vehicle", "setting": "[1]; end point week 16, ITT, LOCF, P=0.01", "value": "significantly lower"}, {"measurement": "noninflammatory lesion counts relative to vehicle", "setting": "[1]; end point week 16, ITT, LOCF, P=0.02", "value": "significantly lower"}, {"measurement": "maintenance rate, total lesion counts (subjects maintaining at least 50% of improvement from previous combination study)", "setting": "[1]; week 16, ITT, worst case (missing data = failure), once-daily for 16 weeks, P<0.001 vs vehicle", "value": 75, "unit": "%"}, {"measurement": "overall safety and tolerability", "setting": "[2]; 16-week study", "value": "safe and well tolerated"}, {"measurement": "subjects experiencing adverse events", "setting": "[2]; 16-week study", "value": 25, "unit": "%"}, {"measurement": "subjects with treatment-related adverse events (percentage)", "setting": "[2]; 16-week study", "value": 2.4, "unit": "%"}, {"measurement": "subjects with treatment-related adverse events (number)", "setting": "[2]; 16-week study, 126 subjects in group", "value": 3, "unit": "subjects"}, {"measurement": "mean worst score for each local cutaneous tolerability variable, large majority of subjects", "setting": "[2]; scale none, mild, moderate, severe", "value": "none or mild"}, {"measurement": "subjects not bothered by side effects", "setting": "[3]", "value": 90, "unit": "%"}, {"measurement": "tolerability / cutaneous irritation profile versus other topical retinoids", "setting": "[4]", "value": "more favorable cutaneous irritation profile"}, {"measurement": "tolerability / cutaneous irritation profile versus other topical retinoids", "setting": "[4]; listed as Adapalene", "value": "more favorable tolerability profile"}]}]}
